Laboratory results reported in patent publication US8324235B2, “Heterocyclic spiro-compounds” (Novartis AG, priority 2007, dated 2012).
Like-named read-outs stand apart in the source and are kept apart here.

Columns and labels:
[1] = target: T1, recombinant human Cyp19 enzyme (aromatase) (Homo sapiens, UniProt P11511); test: Cyp19/MFC high throughput aromatase inhibition kit; assay type: biochemical
T1 construct: purchased Becton Dickinson Biosciences, San Jose, Calif., USA
T1 sequence (P11511 1-503): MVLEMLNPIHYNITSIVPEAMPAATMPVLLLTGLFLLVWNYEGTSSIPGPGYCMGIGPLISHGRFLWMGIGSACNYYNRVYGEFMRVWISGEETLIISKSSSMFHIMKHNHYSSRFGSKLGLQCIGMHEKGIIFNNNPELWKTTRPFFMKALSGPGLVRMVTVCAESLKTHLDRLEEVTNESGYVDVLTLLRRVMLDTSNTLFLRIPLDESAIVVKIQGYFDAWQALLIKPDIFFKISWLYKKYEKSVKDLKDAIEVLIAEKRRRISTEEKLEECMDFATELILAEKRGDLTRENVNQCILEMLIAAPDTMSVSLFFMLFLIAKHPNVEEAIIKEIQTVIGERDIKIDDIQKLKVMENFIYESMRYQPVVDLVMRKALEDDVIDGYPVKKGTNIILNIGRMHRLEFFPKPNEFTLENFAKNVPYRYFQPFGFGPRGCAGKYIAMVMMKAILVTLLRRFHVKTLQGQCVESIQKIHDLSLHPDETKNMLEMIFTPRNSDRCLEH
Description: The compounds of the formula (I′) have at least one asymmetric carbon atom, which is labelled “*”. A compound of the formula (I′) is to be understood as a compound having a specific configuration around the designated asymmetric carbon atom. If a synthesis method is used which leads to racemic compounds, the racemate resolution is carried out in accordance with conventional methods, such as via a chiral HPLC column. […] The aforementioned aromatase inhibitory activity can, as the skilled worker is well aware and as described below, be comfortably determined via the commercial Cyp19 enzyme inhibition kit (vide infra). In the abovementioned inhibition kit, compounds of the formula (I′) have an activity which is at least 10 times lower, preferably 20 times lower than the compounds of the formula (I′) with the opposite configuration around the asymmetric carbon atom labelled “*”.
The enzyme aromatese (CYP19) mediates the rate-limiting step of estrogen biosynthesis in human and rodent species. As estrogens control the sexual characteristics and reproduction as well as various structural and functional tissue features, compounds intended for the herein disclosed therapeutic use should at therapeutic dose levels show no or only minor interference with aromatase.
The concentration-dependent interference of the compounds with aromatase can be measured in vitro using a commercial Cyp19 enzyme inhibition kit and the manufacturer's instructions.
The Cyp19/methoxy-4-trifluoromethyl-coumarin (MFC) high throughput inhibition kit (Becton Dickinson Biosciences, San Jose, Calif., USA), for example, is designed to screen for potential inhibitors of Cyp19 catalytic activity in a 96-well format. The kit includes recombinant human Cyp19 enzyme in the form of supersomes, a fluorescent P450 substrate, an NADPH regenerating system, a reaction buffer and a stop reagent. MFC, the fluorogenic substrate is rapidly converted by Cyp19 supersomes to the highly fluorescent product 7-hydroxy-4-trifluoromethyl coumarin (7-HFC). The execution of the assay in the presence of various concentrations of inhibitor compounds ranging from 0.2 nanomolar to […] occurs according to the manufacturer's instructions. The concentration-dependent inhibition of aromatase activity can be quantified using the equation described above for the in vitro testing of aldosterone synthase inhibition in NCI-H295R cells to generate IC50 values (inhibitory concentration in mol/l yielding 50% of the maximal inhibition).

[2] = target: T2, 11beta hydroxylase (CYP11B1) (Rattus norvegicus, UniProt P15393); test: Suppression of plasma corticosterone levels in ACTH-stimulated rats; assay type: in vivo, Wistar rats; conditions: 4 mg/kg p.o., 2 h after dosing vs 1 h before dosing
T2 construct: from tissue; host or cells: live Wistar rat (adrenal gland)
T2 sequence (P15393 25-499): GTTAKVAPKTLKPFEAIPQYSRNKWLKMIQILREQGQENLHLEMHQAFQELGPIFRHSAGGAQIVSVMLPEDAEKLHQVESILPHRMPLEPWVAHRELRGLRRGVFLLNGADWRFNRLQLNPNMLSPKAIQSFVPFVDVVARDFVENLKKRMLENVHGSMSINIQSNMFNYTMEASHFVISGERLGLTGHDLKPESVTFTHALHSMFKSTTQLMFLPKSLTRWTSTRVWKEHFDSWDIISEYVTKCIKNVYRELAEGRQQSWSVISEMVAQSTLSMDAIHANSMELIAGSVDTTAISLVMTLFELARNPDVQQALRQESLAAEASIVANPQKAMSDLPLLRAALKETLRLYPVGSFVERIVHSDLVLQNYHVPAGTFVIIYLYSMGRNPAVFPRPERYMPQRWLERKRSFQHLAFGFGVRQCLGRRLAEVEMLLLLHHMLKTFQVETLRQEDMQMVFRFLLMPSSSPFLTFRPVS
Description: (§1) Adult male Wistar rats weighing between 250 and 350 grams are kept under the usual 12-hour light and 12-hour dark conditions at a temperature of 23° C.±2° C. On the first day of the experiment, the animals receive a subcutaneous injection of a depot ACTH product in a dose of 1.0 mg/kg weight (SYNACTHEN-Depot, Novartis, Basel, CH) 16 hours prior to the administration of a test compound. […] An alternative method to stimulate aldosterone secretion consists in subjecting rats to a low salt diet for 48 hours and applying the diuretic furosemide at 10 mg/kg by subcutaneous or intraperitoneal administration 16 hours, respectively 2 hours prior to the start of the experiment. On the second day of the experiment, the animals are divided into test groups of 5 animals and subjected to a first bleed 1 hour prior to the administration of test compound. […] The aldosterone concentrations of the plasma samples can be determined with a radioimmunoassay as described above for the in vitro test systems. […]
The selective suppression of plasma steroid levels as for instance aldosterone in comparison to corticosterone may serve as a measure for in vivo bioavailability and pharmacodynamic enzyme inhibitory activity of the herein described compounds. The evaluation of the data may occur relative to the application of vehicle or quantitatively by determination of the area under the curve (AUC). […]

[3] = target: T3, aldosterone synthase (CYP11B2) (Rattus norvegicus, UniProt P30099); test: Suppression of plasma aldosterone levels in ACTH-stimulated rats; assay type: in vivo, Wistar rats; conditions: 4 mg/kg p.o., 2 h after dosing vs 1 h before dosing
T3 construct: from tissue; host or cells: live Wistar rat (adrenal gland, zona glomerulosa)
T3 sequence (P30099 35-510): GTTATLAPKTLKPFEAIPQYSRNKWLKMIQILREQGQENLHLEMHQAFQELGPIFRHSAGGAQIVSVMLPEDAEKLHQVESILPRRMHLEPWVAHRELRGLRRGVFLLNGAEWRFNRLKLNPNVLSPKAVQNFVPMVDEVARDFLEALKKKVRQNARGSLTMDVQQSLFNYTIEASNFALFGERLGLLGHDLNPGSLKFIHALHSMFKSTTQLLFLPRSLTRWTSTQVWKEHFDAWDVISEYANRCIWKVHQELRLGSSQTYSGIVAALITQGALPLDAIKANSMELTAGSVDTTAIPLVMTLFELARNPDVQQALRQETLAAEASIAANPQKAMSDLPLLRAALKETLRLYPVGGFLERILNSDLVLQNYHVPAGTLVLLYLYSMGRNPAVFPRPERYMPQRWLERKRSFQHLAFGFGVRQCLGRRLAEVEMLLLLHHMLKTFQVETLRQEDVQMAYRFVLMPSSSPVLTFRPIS
Description: The target efficacy of the compounds disclosed in the present invention to dose-dependently suppress aldosterone levels in vivo may be assessed with the following protocol:
as §1, with “experiment.” for “experiment. On the second day of the experiment, the animals are divided into test groups of 5 animals and subjected to a first bleed 1 hour prior to the administration of test compound.”
The selective suppression of plasma steroid levels as for instance aldosterone in comparison to corticosterone may serve as a measure for in vivo bioavailability and pharmacodynamic enzyme inhibitory activity of the herein described compounds. The evaluation of the data may occur relative to the application of vehicle or quantitatively by determination of the area under the curve (AUC).

[4] = enantiomers with differing aromatase inhibition, read-out: IC50 value (aromatase inhibition, enantiomers)
[5] = average of several measurements, read-out: IC50 value (aromatase inhibition)

Row | SMILES | IC50 [1, 4] [nM] | Corticosterone levels (% change at 2 h) [2] [%] | Aldosterone levels (% change at 2 h) [3] [%] | IC50 [1, 5] [nM]
1 | N#Cc1ccc2c(c1)COC21CCn2cncc21 (single isomer, unassigned) [Example 23, (1S) or (1R)-5′,6′-Dihydro-3H-spiro[2-benzofuran-1,7′-pyrrolo[1,2-c]imidazole]-5-carbonitrile] | 922 | – | – | –
2 | N#Cc1ccc2c(c1)COC21CCn2cncc21 (single isomer, unassigned) [antipode of 23] | 31.8 | – | – | –
3 | N#Cc1ccc2c(c1)COC21CCCn2cncc21 (centres unmarked) [Example 1, 6′,7′-Dihydro-3H,5′H-spiro[2-benzofuran-1,8′-imidazo[1,5-a]pyridine]-5-carbonitrile] | – | −7.7 | −67.6 | 64.6
4 | N#Cc1ccc2c(c1)C1(CCCn3cncc31)OC2 (centres unmarked) [Example 4, 6′,7′-Dihydro-3H,5′H-spiro[2-benzofuran-1,8′-imidazo[1,5-a]pyridine]-6-carbonitrile] | – | 0.9 | −50.2 | 406
